Each block holds one compound with its values, some of them ahead of it. Peptide text beside a SMILES is read from it. * marks the point of attachment. Boc = CC(C)(C)OC(=O)*; NHBn = c1ccc(CN*)cc1
Tests used:
[1] = target: T1, rabbit 20S proteasome, chymotrypsin-like (CT-L) activity (Oryctolagus cuniculus, UniProt G1T4Q9); assay: Rabbit 20S proteasome fluorescent assay, chymotrypsin-like activity (Suc-LLVY-amc); type: biochemical; conditions: pH 7.5, 30° C.
T1 construct: other: 100 μM compound, pH 7.5, 30° C; other: pH 7.5, 30° C; CT-L Ki
T1 sequence (G1T4Q9 1-263): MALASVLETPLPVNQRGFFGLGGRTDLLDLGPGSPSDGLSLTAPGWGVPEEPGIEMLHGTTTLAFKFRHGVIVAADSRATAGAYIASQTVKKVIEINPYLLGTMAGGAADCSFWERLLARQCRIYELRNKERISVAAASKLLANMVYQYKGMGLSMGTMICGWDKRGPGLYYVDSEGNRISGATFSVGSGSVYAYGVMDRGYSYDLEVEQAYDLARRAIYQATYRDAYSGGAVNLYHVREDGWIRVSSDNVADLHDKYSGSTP
Procedure: (§1) 20S proteasome from rabbit reticulocyte was from commercial source (Alexis Biochemicals)
(§2) Semi-automatic fluorescent assays using Suc-LLVY-amc (SEQ ID NO: 2) for chymotrypsin-like activity, Z-LLE-SNA for post-acid activity and Boc-LLR-amc for trypsin-like activity of proteasome were performed at pH 7.5 and 30° C. using BMG Fluostar microplate reader (Suc=succinyl; amc=7-amino-4-methylcoumarin; Z=benzyloxycarbonyl; NA=2-naphtylamine; Boc=tert-butoxycarbonyl). The buffers were: 20 mM Tris, 1 mM DTT, 10% glycerol, 3% (v/v) DMSO (ChT-L and PA activities); 20 mM Tris, 1 mM DTT, 10% glycerol, 3% (v/v) DMSO. Studied compounds were dissolved in DMSO prior dissolution in the buffer. Proteasome was incubated for 15 min at 30° C. in the presence of the studied compound (0.1-100 μM). A control assay in the absence of tested compounds contained DMSO at the same concentration (3%, v/v). The fluorogenic proteasome substrate was then added and the hydrolysis of the appropriate fluorescent substrate was monitored for 1 h (λexc=360, λem=465 nm for amc substrates and λexc=340, λem=405 nm for the βNA substrate). Initial rates determined in control experiments were considered to be 100% of the peptidasic activity; initial rates that were above 100% in the presence of a test compound were considered to be activations, while initial rates below 100% were considered to be inhibitions. For weak inhibitors, the percentage of inhibition at a reference concentration (100 μM) is reported. The results, expressed in % inhibition (or activation factor), were obtained by calculating the average of at least two independent experiments, the variability was less than 10%. The inhibitory activity of more efficient compounds are expressed as IC50 calculated by fitting the experimental data to the equation 1: % Inhibition=100 [I]0/(IC50+[I]0)=100 (v0−vi/v0), or equation 2: % Inhibition=100 [I]0^nH/(IC50^nH+[I]0^nH), nH is the Hill number. v0 and vi are the initial rates in the absence and in the presence of inhibitor. A Dixon plot has been used to determine the inhibition constant Ki for competitive inhibition by compound A215. The reversible character of inhibition or activation was determined by measuring the activity of treated enzyme after the inhibitor molecule has been withdrawn from the reaction medium.
(§3) Inhibition of Rabbit 20 S Proteasome (pH=7.5, 30° C.)
(§4) Activation of Rabbit 20 S Proteasome (pH=7.5, 30° C., [Compound]=100 μM)

[2] = target: T2, rabbit 20S proteasome, trypsin-like (T-L) activity (Oryctolagus cuniculus, UniProt G1SWK8); assay: Rabbit 20S proteasome fluorescent assay, trypsin-like activity (Boc-LLR-amc); type: biochemical; conditions: pH 7.5, 30° C.; for inhibition at 100 µM: 100 μM compound
T2 construct: other: 100 μM compound, pH 7.5, 30° C; other: pH 7.5, 30° C
T2 sequence (G1SWK8 1-271): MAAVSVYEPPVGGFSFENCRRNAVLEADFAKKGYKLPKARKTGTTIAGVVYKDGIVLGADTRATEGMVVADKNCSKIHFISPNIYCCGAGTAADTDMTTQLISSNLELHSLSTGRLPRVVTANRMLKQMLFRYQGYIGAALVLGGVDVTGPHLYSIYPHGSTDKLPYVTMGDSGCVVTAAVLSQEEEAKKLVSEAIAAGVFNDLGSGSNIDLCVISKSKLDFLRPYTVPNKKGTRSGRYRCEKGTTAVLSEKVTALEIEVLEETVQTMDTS
Procedure: as §1, §2, §3, §4

[3] = target: T3, rabbit 20S proteasome, post-acid (PA) activity (Oryctolagus cuniculus, UniProt A0A5F9DQW2); assay: Rabbit 20S proteasome fluorescent assay, post-acid activity (Z-LLE-βNA); type: biochemical; conditions: pH 7.5, 30° C.
T3 construct: other: 100 μM compound, pH 7.5, 30° C; other: pH 7.5, 30° C
T3 sequence (A0A5F9DQW2 1-212): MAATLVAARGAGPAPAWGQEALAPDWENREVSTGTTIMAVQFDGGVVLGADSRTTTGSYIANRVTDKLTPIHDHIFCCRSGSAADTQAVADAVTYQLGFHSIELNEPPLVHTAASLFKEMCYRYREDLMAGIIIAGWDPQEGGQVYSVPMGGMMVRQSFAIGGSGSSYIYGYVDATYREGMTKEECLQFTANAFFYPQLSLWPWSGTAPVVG
Procedure: as §1, §2, §3, §4

[4] = patients enrolled in clinical trials (thrombocytopaenia, fatigue, peripheral neuropathy, neutropenia); cited from earlier work
[5] = target: cytosolic tripeptidyl peptidase II (Homo sapiens, UniProt P29144); conditions: cited from earlier work
Chain of cytosolic tripeptidyl peptidase II (P29144 whole entry): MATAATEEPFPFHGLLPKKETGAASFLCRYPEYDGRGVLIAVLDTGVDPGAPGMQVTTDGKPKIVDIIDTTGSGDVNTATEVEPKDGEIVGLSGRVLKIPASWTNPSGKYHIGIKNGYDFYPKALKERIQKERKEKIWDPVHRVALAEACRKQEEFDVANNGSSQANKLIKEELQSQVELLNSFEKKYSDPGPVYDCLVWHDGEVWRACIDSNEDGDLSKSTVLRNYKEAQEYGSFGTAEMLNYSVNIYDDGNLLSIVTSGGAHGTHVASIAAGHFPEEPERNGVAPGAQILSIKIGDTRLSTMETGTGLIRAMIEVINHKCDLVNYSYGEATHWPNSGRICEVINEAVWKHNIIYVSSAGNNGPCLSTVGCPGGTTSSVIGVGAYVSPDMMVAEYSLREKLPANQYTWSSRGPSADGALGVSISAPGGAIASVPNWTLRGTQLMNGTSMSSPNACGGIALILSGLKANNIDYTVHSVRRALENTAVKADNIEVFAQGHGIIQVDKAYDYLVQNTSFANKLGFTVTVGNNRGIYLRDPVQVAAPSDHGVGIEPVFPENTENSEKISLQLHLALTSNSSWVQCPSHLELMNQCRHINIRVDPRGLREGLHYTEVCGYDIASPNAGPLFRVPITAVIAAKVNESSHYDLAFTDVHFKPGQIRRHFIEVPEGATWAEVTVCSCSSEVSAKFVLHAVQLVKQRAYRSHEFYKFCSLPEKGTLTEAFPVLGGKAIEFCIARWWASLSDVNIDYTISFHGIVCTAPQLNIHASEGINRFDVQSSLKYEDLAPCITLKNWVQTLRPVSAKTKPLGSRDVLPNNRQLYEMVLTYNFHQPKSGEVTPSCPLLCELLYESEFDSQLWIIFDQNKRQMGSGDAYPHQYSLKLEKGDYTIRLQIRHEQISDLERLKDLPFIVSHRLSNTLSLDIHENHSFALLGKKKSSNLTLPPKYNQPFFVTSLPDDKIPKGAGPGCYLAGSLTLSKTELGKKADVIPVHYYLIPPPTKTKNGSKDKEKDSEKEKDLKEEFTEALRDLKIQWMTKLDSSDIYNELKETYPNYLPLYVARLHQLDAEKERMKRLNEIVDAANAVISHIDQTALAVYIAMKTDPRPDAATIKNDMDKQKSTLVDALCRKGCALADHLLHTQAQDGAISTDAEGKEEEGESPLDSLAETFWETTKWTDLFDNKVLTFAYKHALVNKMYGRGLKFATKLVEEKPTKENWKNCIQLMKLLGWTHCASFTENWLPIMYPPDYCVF

[6] = target: T4, cathepsin A (Homo sapiens, UniProt P10619); conditions: cited from earlier work
T4 sequence (P10619 29-480): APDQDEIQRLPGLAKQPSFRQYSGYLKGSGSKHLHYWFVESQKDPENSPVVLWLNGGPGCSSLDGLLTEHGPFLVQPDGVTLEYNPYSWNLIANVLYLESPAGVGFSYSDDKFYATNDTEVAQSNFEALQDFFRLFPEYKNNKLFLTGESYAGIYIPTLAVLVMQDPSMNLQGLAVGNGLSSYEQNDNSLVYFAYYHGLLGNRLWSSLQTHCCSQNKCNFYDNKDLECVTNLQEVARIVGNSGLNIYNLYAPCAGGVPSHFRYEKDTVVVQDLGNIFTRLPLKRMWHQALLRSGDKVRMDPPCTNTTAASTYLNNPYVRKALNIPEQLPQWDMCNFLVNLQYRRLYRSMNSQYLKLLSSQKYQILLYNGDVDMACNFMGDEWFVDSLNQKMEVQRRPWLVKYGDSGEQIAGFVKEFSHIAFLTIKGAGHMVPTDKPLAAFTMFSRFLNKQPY

[7] = system: T5, rabbit 20S proteasome, chymotrypsin-like (CT-L) activity; assay: Rabbit 20S proteasome fluorescent assay, chymotrypsin-like activity (Suc-LLVY-amc); type: biochemical; conditions: [Compound]=100 μM, pH 7.5, 30° C.
T5 construct: other: [Compound]=100 μM, pH 7.5, 30° C
Procedure: as §1, §2, §3, §4

[8] = system: rabbit 20S proteasome, trypsin-like (T-L) activity; assay: Rabbit 20S proteasome fluorescent assay, trypsin-like activity (Boc-LLR-amc); type: biochemical; conditions: [Compound]=100 μM, pH 7.5, 30° C.
Procedure: as §1, §2, §3, §4

[9] = system: rabbit 20S proteasome, post-acid (PA) activity; assay: Rabbit 20S proteasome fluorescent assay, post-acid activity (Z-LLE-βNA); type: biochemical; conditions: [Compound]=100 μM, pH 7.5, 30° C.
Procedure: as §1, §2, §3, §4

[10] = target: T6, m-calpain (Homo sapiens, UniProt P17655); conditions: cited from earlier work
T6 sequence (P17655 1-700): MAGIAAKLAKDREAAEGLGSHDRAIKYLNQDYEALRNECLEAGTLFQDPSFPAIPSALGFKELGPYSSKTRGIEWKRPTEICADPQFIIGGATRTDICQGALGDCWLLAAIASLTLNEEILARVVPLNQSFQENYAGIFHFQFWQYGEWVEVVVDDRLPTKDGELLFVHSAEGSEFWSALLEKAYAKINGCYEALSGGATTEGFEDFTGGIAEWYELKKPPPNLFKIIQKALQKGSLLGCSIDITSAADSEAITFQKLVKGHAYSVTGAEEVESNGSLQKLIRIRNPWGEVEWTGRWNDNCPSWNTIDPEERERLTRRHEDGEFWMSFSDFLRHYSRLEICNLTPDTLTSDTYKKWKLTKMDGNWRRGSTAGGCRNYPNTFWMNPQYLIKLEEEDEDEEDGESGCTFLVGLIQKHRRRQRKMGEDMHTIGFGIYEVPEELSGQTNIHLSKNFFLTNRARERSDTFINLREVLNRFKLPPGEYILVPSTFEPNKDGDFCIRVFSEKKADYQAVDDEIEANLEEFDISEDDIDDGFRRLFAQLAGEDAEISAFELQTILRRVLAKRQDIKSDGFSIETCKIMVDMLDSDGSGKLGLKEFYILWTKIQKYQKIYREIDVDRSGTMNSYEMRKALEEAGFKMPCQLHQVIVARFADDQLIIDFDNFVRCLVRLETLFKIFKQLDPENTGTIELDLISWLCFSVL
T6 sequence (P04632 1-268 partner): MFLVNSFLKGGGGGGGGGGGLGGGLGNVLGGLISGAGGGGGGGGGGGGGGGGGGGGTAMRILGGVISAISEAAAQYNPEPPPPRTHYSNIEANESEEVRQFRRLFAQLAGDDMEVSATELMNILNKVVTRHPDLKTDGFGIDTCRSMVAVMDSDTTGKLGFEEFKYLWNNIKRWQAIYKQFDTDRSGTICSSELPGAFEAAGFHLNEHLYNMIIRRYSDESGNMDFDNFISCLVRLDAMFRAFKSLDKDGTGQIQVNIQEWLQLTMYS

[11] = target: cathepsin-L (Homo sapiens, UniProt P07711); conditions: cited from earlier work
Chain of cathepsin-L (P07711 114-333, species assumed): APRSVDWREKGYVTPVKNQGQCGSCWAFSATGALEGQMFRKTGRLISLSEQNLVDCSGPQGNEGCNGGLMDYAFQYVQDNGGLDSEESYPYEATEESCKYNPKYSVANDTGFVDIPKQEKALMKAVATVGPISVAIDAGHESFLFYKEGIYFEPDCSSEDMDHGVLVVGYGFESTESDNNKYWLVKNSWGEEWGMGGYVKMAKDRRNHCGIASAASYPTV

[12] = target: T7, trypsin (Bos taurus, UniProt P00760); conditions: cited from earlier work
T7 construct: gene PRSS1
T7 sequence (P00760 24-246): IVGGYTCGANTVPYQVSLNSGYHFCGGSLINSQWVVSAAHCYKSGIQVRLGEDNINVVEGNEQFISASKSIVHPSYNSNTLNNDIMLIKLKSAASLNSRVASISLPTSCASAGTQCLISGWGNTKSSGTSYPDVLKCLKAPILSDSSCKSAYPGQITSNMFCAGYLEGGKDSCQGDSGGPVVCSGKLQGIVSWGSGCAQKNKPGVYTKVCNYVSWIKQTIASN

Ki ([1]; Dixon plot, competitive inhibition): 2 µM | IC50 [1]: 6.8 µM | IC50 [2]: 14.4 µM | IC50 [3]: 11.3 µM
Structure (SMILES): C[C@H](NC(=O)[C@H](Cc1ccc(OCc2ccccc2)c(I)c1)NC(=O)OC(C)(C)C)C(=O)N[C@@H](Cc1c[nH]c2c(Br)cccc12)C(=O)O [A215, N-Boc-3-iodo-Tyr(Bn)-Ala-7-bromo-Trp-OH]

Structure (SMILES): CC(C)C[C@H](NC(=O)[C@H](Cc1ccccc1)NC(=O)c1cnccn1)B(O)O [Bortezomib, bortezomib]
patients with adverse events [4]: 30%

Structure (SMILES): CC(=O)N[C@@H](CSC(=O)[C@]1([C@@H](O)C(C)C)NC(=O)[C@H](C)[C@@H]1O)C(=O)O [Lactacystin, lactacystin]
inhibition of tripeptidyl peptidase II [5]: inhibited | inhibition of cathepsin A [6]: inhibited

inhibition at 100 µM [2]: 49% | PA % inhibition (at 100 μM) ([3]; 100 μM compound): 25%
Structure (SMILES): CNC(=O)[C@H](Cc1c[nH]c2c(-c3cc(C[C@H](NC(=O)OC(C)(C)C)C(=O)N[C@@H](C)C(=O)OC)ccc3OCc3ccccc3)cccc12)NC(=O)OCc1ccccc1 [SP225F2]

Structure (SMILES): C[C@H](NC(=O)[C@H](Cc1ccc(OCc2ccccc2)cc1)NC(=O)OC(C)(C)C)C(=O)N[C@@H](Cc1c[nH]c2ccccc12)C(=O)NCCCCNC(=O)OC(C)(C)C [SP305R, N-Boc-Tyr(Bn)-Ala-Trp-NH(CH2)4NHBoc]
CT-L Activation factor [7]: 1.5 | T-L Activation factor [8]: 3.2 | PA Activation factor [9]: 1.2

Structure (SMILES): CC(C)(C)OC(=O)NCCCCNC(=O)[C@H](Cc1c[nH]c2ccccc12)NC(=O)[C@H](CCCN(C(=N)NC(=O)OCc1ccccc1)C(=O)OCc1ccccc1)NC(=O)[C@H](Cc1ccc(OCc2ccccc2)cc1)NC(=O)OC(C)(C)C [SP311C, N-Boc-Tyr(Bn)-Arg(Z)-2-Trp-NH(CH2)4NHBoc]
CT-L Activation factor [7]: 1.3 | T-L Activation factor [8]: 1.9 | PA Activation factor [9]: 1.2

Structure (SMILES): CC(C)(C)OC(=O)NCCCC[C@H](NC(=O)[C@H](Cc1ccc(OCc2ccccc2)cc1)NC(=O)OC(C)(C)C)C(=O)N[C@@H](Cc1c[nH]c2ccccc12)C(=O)Nc1ccc(O)cc1 [SP319P, N-Boc-Tyr(Bn)-Lys(Boc)-Trp-NH(4-OH)Ph]
inhibition at 100 µM ([1]; 100 μM compound): 36% | inhibition at 100 µM [2]: 14%

Structure (SMILES): CC(C)(C)OC(=O)NCCCCNC(=O)[C@H](Cc1c[nH]c2ccccc12)NC(=O)[C@H](CC(N)=O)NC(=O)[C@H](Cc1ccc(OCc2ccccc2)cc1)NC(=O)OC(C)(C)C [SP323C2, N-Boc-Tyr(Bn)-Asn-Trp-NH(CH2)4NHBoc]
CT-L Activation factor [7]: 1.6 | T-L Activation factor [8]: 2.2 | PA Activation factor [9]: 1.2

IC50 [1]: 9 µM | IC50 [2]: 21 µM | IC50 [3]: 3 µM
Structure (SMILES): CC(C)(C)OC(=O)N[C@@H](Cc1ccc(O)cc1)C(=O)N[C@@H](CCCNC(=N)N)C(=O)N[C@@H](Cc1c[nH]c2ccccc12)C(=O)Nc1ccc(O)cc1 [SP324, N-Boc-Tyr-Arg-Trp-NH(4-OH)Ph]

IC50 [1]: 5.4 µM | IC50 [2]: 19 µM | IC50 [3]: 2.5 µM
Structure (SMILES): CC(C)(C)OC(=O)N[C@@H](Cc1ccc(O)cc1)C(=O)N[C@@H](CCCNC(=N)N)C(=O)N[C@@H](Cc1c[nH]c2ccccc12)C(=O)NCc1ccccc1 [SP325, N-Boc-Tyr-Arg-Trp-NHCH2Ph] (Boc-Tyr-Arg-Trp-NHBn)

Structure (SMILES): C/C=C\NC(=O)[C@H]1NC(=O)[C@H](CC(N)=O)NC(=O)[C@@H](NC(=O)C(=O)[C@@H](C)CC)Cc2ccc(O)c(c2)-c2cccc3c2NC(=O)[C@@]3(O)[C@@H]1O [TMC-95A]
inhibition of m-calpain [10]: no inhibition | inhibition of cathepsin-L [11]: no inhibition | inhibition of trypsin [12]: no inhibition
